Measured values as given in publication PMC6367342, “The major allergen Der p 2 is a cholesterol binding protein” (Scientific Reports, 2019).

Molecular target: T1, rDer f 2 (Dermatophagoides farinae, UniProt Q00855)
T1 construct: gene DERF2
T1 sequence (Q00855 18-146): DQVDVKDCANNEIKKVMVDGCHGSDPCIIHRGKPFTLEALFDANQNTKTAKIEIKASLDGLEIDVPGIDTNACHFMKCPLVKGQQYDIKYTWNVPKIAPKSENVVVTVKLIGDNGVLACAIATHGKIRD
Experiment: lipid ELISA on immobilized lipid, polyclonal anti-allergen IgG detection
Type: binding
Conditions: 0.5 ug/mL protein; lipid coated 0.02-6.40 nmol/well; PBS, 1% BSA block; 1 h

In the case of CC(C)CCC[C@@H](C)[C@H]1CC[C@H]2[C@@H]3CC=C4C[C@@H](O)CC[C@]4(C)[C@H]3CC[C@]12C [cholesterol], the “lipid ELISA on immobilized lipid, polyclonal anti-allergen IgG detection” value is reported as “also showed dose-dependent binding to cholesterol, but not POPG”.
